Results taken from PubChem BioAssay AID2060904 (Molecular Pharmacology Branch, DTP, NCI, 2025).

System: 349418-098-R-PDC complex spheroid viability
Experiment: Anticancer human tumor 349418-098-R-PDC patient-derived lung adenocarcinoma cell line growth inhibition [RAS]
Conditions: for IC50: curve of first compound; for viability, T/C: stronger effect = lower value
In short: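 Multi-cell-type spheroids: tumor cells plus HUVEC endothelial cells and mesenchymal stem cells. RAS-pathway inhibitors were combined with targeted agents, each dosed in half-log steps down from clinical Cmax, or from 10 microM when Cmax was unknown.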
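Further: spheroids exposed to compound for seven days before viability readout.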

With `Nc1ccn(C2OC(CO)C(O)C2(F)F)c(=O)n1` (centres undefined) + C#Cc1c(F)ccc2cc(O)cc(-c3ncc4c(N5CC6CCC(C5)N6)nc(OCC56CCCN5CC(F)C6)nc4c3F)c12 the IC50 (second compound 0.0316 µM) was under 3.16 nM, the IC50 (second compound 0.1 µM) was under 3.16 nM and the IC50 (second compound 0.316 µM) was under 3.16 nM. The IC50 (second compound 1 µM) was under 3.16 nM, the IC50 (second compound 3.16 µM) was under 3.16 nM and the IC50 (second compound 10 µM) was under 3.16 nM. It also gave a viability, T/C (second compound 0.0316 µM, first compound 0.00316 µM) of 22.7%, a viability, T/C (second compound 0.0316 µM, first compound 0.01 µM) of 7.34% and a viability, T/C (second compound 0.0316 µM, first compound 0.0316 µM) of 6.68%. For the same compound, the viability, T/C (second compound 0.0316 µM, first compound 0.1 µM) was 6.34%, the viability, T/C (second compound 0.0316 µM, first compound 0.316 µM) was 4.77% and the viability, T/C (second compound 0.0316 µM, first compound 1 µM) was 5.69%. For the same compound, the viability, T/C (second compound 0.1 µM, first compound 0.00316 µM) was 22.5%, the viability, T/C (second compound 0.1 µM, first compound 0.01 µM) was 6.75% and the viability, T/C (second compound 0.1 µM, first compound 0.0316 µM) was 6.72%. For the same compound, the viability, T/C (second compound 0.1 µM, first compound 0.1 µM) was 5.71%, the viability, T/C (second compound 0.1 µM, first compound 0.316 µM) was 5.49% and the viability, T/C (second compound 0.1 µM, first compound 1 µM) was 4.87%. The viability, T/C (second compound 0.316 µM, first compound 0.00316 µM) was 22.3%, the viability, T/C (second compound 0.316 µM, first compound 0.01 µM) was 7.7% and the viability, T/C (second compound 0.316 µM, first compound 0.0316 µM) was 6.8%. For the same compound, the viability, T/C (second compound 0.316 µM, first compound 0.1 µM) was 6.21%, the viability, T/C (second compound 0.316 µM, first compound 0.316 µM) was 6.34% and the viability, T/C (second compound 0.316 µM, first compound 1 µM) was 5.58%. For the same compound, the viability, T/C (second compound 1 µM, first compound 0.00316 µM) was 21.2%, the viability, T/C (second compound 1 µM, first compound 0.01 µM) was 7.84% and the viability, T/C (second compound 1 µM, first compound 0.0316 µM) was 5.78%. It also gave a viability, T/C (second compound 1 µM, first compound 0.1 µM) of 6.95%, a viability, T/C (second compound 1 µM, first compound 0.316 µM) of 6.05% and a viability, T/C (second compound 1 µM, first compound 1 µM) of 5.2%. For the same compound, the viability, T/C (second compound 3.16 µM, first compound 0.00316 µM) was 18.1%, the viability, T/C (second compound 3.16 µM, first compound 0.01 µM) was 9.18% and the viability, T/C (second compound 3.16 µM, first compound 0.0316 µM) was 6.71%. The viability, T/C (second compound 3.16 µM, first compound 0.1 µM) was 7.51%, the viability, T/C (second compound 3.16 µM, first compound 0.316 µM) was 7.89% and the viability, T/C (second compound 3.16 µM, first compound 1 µM) was 6.18%. For the same compound, the viability, T/C (second compound 10 µM, first compound 0.00316 µM) was 16%, the viability, T/C (second compound 10 µM, first compound 0.01 µM) was 3.49% and the viability, T/C (second compound 10 µM, first compound 0.0316 µM) was 5.23%. It also gave a viability, T/C (second compound 10 µM, first compound 0.1 µM) of 3.11%, a viability, T/C (second compound 10 µM, first compound 0.316 µM) of 5.48% and a viability, T/C (second compound 10 µM, first compound 1 µM) of 4.28%.
Compound `C=CC(=O)N1CCN(c2nc(OCC3CCCN3C)nc3c(F)c(-c4nc(N)cc(C)c4C(F)(F)F)c(Cl)cc23)C(C)C1` (centres undefined) + CCn1c(-c2cccnc2C(C)OC)c2c3cc(ccc31)N1CCOC(CC(NC(=O)C(C(C)C)N(C)C(=O)C3(F)CCN(C(=O)C#CC(C)(C)N(C)C)CC3)C(=O)N3CCCC(N3)C(=O)OCC(C)(C)C2)C1 has an IC50 (second compound 0.000949 µM) of over 1000 nM, an IC50 (second compound 0.003 µM) of over 1000 nM and an IC50 (second compound 0.00949 µM) of over 1000 nM. The IC50 (second compound 0.03 µM) was over 1000 nM, the IC50 (second compound 0.0949 µM) was over 1000 nM and the IC50 (second compound 0.3 µM) was over 1000 nM. It also gave a viability, T/C (second compound 0.000949 µM, first compound 0.00316 µM) of 99%, a viability, T/C (second compound 0.000949 µM, first compound 0.01 µM) of 94% and a viability, T/C (second compound 0.000949 µM, first compound 0.0316 µM) of 111%. It also gave a viability, T/C (second compound 0.000949 µM, first compound 0.1 µM) of 106%, a viability, T/C (second compound 0.000949 µM, first compound 0.316 µM) of 116% and a viability, T/C (second compound 0.000949 µM, first compound 1 µM) of 87.4%. For the same compound, the viability, T/C (second compound 0.003 µM, first compound 0.00316 µM) was 112%, the viability, T/C (second compound 0.003 µM, first compound 0.01 µM) was 97.6% and the viability, T/C (second compound 0.003 µM, first compound 0.0316 µM) was 103%. For the same compound, the viability, T/C (second compound 0.003 µM, first compound 0.1 µM) was 92.6%, the viability, T/C (second compound 0.003 µM, first compound 0.316 µM) was 109% and the viability, T/C (second compound 0.003 µM, first compound 1 µM) was 82.8%. It also gave a viability, T/C (second compound 0.00949 µM, first compound 0.00316 µM) of 105%, a viability, T/C (second compound 0.00949 µM, first compound 0.01 µM) of 98.3% and a viability, T/C (second compound 0.00949 µM, first compound 0.0316 µM) of 101%. The viability, T/C (second compound 0.00949 µM, first compound 0.1 µM) was 101%, the viability, T/C (second compound 0.00949 µM, first compound 0.316 µM) was 105% and the viability, T/C (second compound 0.00949 µM, first compound 1 µM) was 98.8%. It also gave a viability, T/C (second compound 0.03 µM, first compound 0.00316 µM) of 99.3%, a viability, T/C (second compound 0.03 µM, first compound 0.01 µM) of 97.4% and a viability, T/C (second compound 0.03 µM, first compound 0.0316 µM) of 90.2%. It also gave a viability, T/C (second compound 0.03 µM, first compound 0.1 µM) of 104%, a viability, T/C (second compound 0.03 µM, first compound 0.316 µM) of 103% and a viability, T/C (second compound 0.03 µM, first compound 1 µM) of 83.3%. It also gave a viability, T/C (second compound 0.0949 µM, first compound 0.00316 µM) of 102%, a viability, T/C (second compound 0.0949 µM, first compound 0.01 µM) of 89% and a viability, T/C (second compound 0.0949 µM, first compound 0.0316 µM) of 85.5%. For the same compound, the viability, T/C (second compound 0.0949 µM, first compound 0.1 µM) was 89.7%, the viability, T/C (second compound 0.0949 µM, first compound 0.316 µM) was 100% and the viability, T/C (second compound 0.0949 µM, first compound 1 µM) was 89%. It also gave a viability, T/C (second compound 0.3 µM, first compound 0.00316 µM) of 85.4%, a viability, T/C (second compound 0.3 µM, first compound 0.01 µM) of 95.2% and a viability, T/C (second compound 0.3 µM, first compound 0.0316 µM) of 83.8%. The viability, T/C (second compound 0.3 µM, first compound 0.1 µM) was 87.8%, the viability, T/C (second compound 0.3 µM, first compound 0.316 µM) was 101% and the viability, T/C (second compound 0.3 µM, first compound 1 µM) was 80%.
